# Assay results reported in paper PMC7497403, “Development of Potent PfCLK3 Inhibitors Based on TCMDC-135051 as a New Class of Antimalarials” (Journal of Medicinal Chemistry, 2020).
# Experiments:
# [1] = Aqueous solubility; type: physicochemical; details: aqueous medium (not further specified); read-out: Aq. Solubility
# [2] = molecular target: MKK2 (Homo sapiens, UniProt P36507); experiment: Kinase screen; type: biochemical
# From the text: (§1) With verapamil used as a positive control.
# (§2) V. Distribution coefficient (LogD7.4)
# [3] = molecular target: MLK3 (Homo sapiens, UniProt Q16584); experiment: Kinase screen; type: biochemical
# From the text: as §1, §2
# [4] = molecular target: RSK1 (Homo sapiens, UniProt Q15418); experiment: Kinase screen; type: biochemical
# From the text: as §1, §2
# [5] = molecular target: p38g MAPK (Homo sapiens, UniProt P53778); experiment: Kinase screen; type: biochemical
# From the text: as §1, §2
# [6] = molecular target: GCK (Homo sapiens, UniProt Q12851); experiment: Kinase screen; type: biochemical
# From the text: as §1, §2
# [7] = molecular target: RIPK2 (Homo sapiens, UniProt O43353); experiment: Kinase screen; type: biochemical
# From the text: as §1, §2
# [8] = molecular target: TTBK2 (Homo sapiens, UniProt Q6IQ55); experiment: Kinase screen; type: biochemical
# From the text: as §1, §2
# [9] = molecular target: EPH-B2 (Homo sapiens, UniProt P29323); experiment: Kinase screen; type: biochemical
# From the text: as §1, §2
# [10] = molecular target: LKB1 (Homo sapiens, UniProt Q15831); experiment: Kinase screen; type: biochemical
# From the text: as §1, §2
# [11] = molecular target: ROCK 2 (Homo sapiens, UniProt O75116); experiment: Kinase screen; type: biochemical
# From the text: as §1, §2
# [12] = molecular target: TAO1 (Homo sapiens, UniProt Q7L7X3); experiment: Kinase screen; type: biochemical
# From the text: as §1, §2
# [13] = molecular target: DAPK1 (Homo sapiens, UniProt P53355); experiment: Kinase screen; type: biochemical
# From the text: as §1, §2
# [14] = molecular target: PAK4 (Homo sapiens, UniProt O96013); experiment: Kinase screen; type: biochemical
# From the text: as §1, §2
# [15] = molecular target: MARK4 (Homo sapiens, UniProt Q96L34); experiment: Kinase screen; type: biochemical
# From the text: as §1, §2
# [16] = molecular target: TIE2 (Homo sapiens, UniProt Q02763); experiment: Kinase screen; type: biochemical
# From the text: as §1, §2
# [17] = molecular target: Aurora A (Homo sapiens, UniProt O14965); experiment: Kinase screen; type: biochemical
# From the text: as §1, §2
# [18] = molecular target: JNK1 (Homo sapiens, UniProt P45983); experiment: Kinase screen; type: biochemical
# From the text: as §1, §2
# [19] = molecular target: CDK2-Cyclin A (Homo sapiens, UniProt P24941); experiment: Kinase screen; type: biochemical
# From the text: as §1, §2
# [20] = molecular target: PIM3 (Homo sapiens, UniProt Q86V86); experiment: Kinase screen; type: biochemical
# From the text: as §1, §2
# [21] = molecular target: CDK9-Cyclin T1 (Homo sapiens, UniProt P50750); experiment: Kinase screen; type: biochemical
# From the text: as §1, §2
# [22] = molecular target: TTBK1 (Homo sapiens, UniProt Q5TCY1); experiment: Kinase screen; type: biochemical
# From the text: as §1, §2
# [23] = molecular target: ASK1 (Homo sapiens, UniProt Q99683); experiment: Kinase screen; type: biochemical
# From the text: as §1, §2
# [24] = molecular target: TBK1 (Homo sapiens, UniProt Q9UHD2); experiment: Kinase screen; type: biochemical
# From the text: as §1, §2
# [25] = molecular target: IRAK1 (Homo sapiens, UniProt P51617); experiment: Kinase screen; type: biochemical
# From the text: as §1, §2
# [26] = molecular target: OSR1 (Homo sapiens, UniProt O95747); experiment: Kinase screen; type: biochemical
# From the text: as §1, §2
# [27] = molecular target: TGFBR1 (Homo sapiens, UniProt P36897); experiment: Kinase screen; type: biochemical
# From the text: as §1, §2
# [28] = molecular target: MPSK1 (Homo sapiens, UniProt O75716); experiment: Kinase screen; type: biochemical
# From the text: as §1, §2
# [29] = molecular target: FGF-R1 (Homo sapiens, UniProt P11362); experiment: Kinase screen; type: biochemical
# From the text: as §1, §2
# [30] = molecular target: MKK6 (Homo sapiens, UniProt P52564); experiment: Kinase screen; type: biochemical
# From the text: as §1, §2
# [31] = molecular target: TSSK1 (Homo sapiens, UniProt Q9BXA7); experiment: Kinase screen; type: biochemical
# From the text: as §1, §2
# [32] = molecular target: CHK1 (Homo sapiens, UniProt O14757); experiment: Kinase screen; type: biochemical
# From the text: as §1, §2
# [33] = molecular target: ERK1 (Homo sapiens, UniProt P27361); experiment: Kinase screen; type: biochemical
# From the text: as §1, §2
# [34] = molecular target: PKD1 (Homo sapiens, UniProt Q15139); experiment: Kinase screen; type: biochemical
# From the text: as §1, §2
# [35] = molecular target: PLK1 (Homo sapiens, UniProt P53350); experiment: Kinase screen; type: biochemical
# From the text: as §1, §2
# [36] = molecular target: SmMLCK (Homo sapiens, UniProt Q15746); experiment: Kinase screen; type: biochemical
# From the text: as §1, §2
# [37] = molecular target: MINK1 (Homo sapiens, UniProt Q8N4C8); experiment: Kinase screen; type: biochemical
# From the text: as §1, §2
# [38] = molecular target: TAK1 (Homo sapiens, UniProt O43318); experiment: Kinase screen; type: biochemical
# From the text: as §1, §2
# [39] = molecular target: CK1γ2 (Homo sapiens, UniProt P78368); experiment: Kinase screen; type: biochemical
# From the text: as §1, §2
# [40] = molecular target: EPH-B4 (Homo sapiens, UniProt P54760); experiment: Kinase screen; type: biochemical
# From the text: as §1, §2
# [41] = molecular target: CK2 (Homo sapiens, UniProt P68400); experiment: Kinase screen; type: biochemical
# From the text: as §1, §2
# [42] = molecular target: MST3 (Homo sapiens, UniProt Q9Y6E0); experiment: Kinase screen; type: biochemical
# From the text: as §1, §2
# [43] = molecular target: SIK2 (Homo sapiens, UniProt Q9H0K1); experiment: Kinase screen; type: biochemical
# From the text: as §1, §2
# [44] = molecular target: MST2 (Homo sapiens, UniProt Q13188); experiment: Kinase screen; type: biochemical
# From the text: as §1, §2
# [45] = molecular target: PKBa (Homo sapiens, UniProt P31749); experiment: Kinase screen; type: biochemical
# From the text: as §1, §2
# [46] = test system: PINK; details: 1 μM
# CK1γ2, sequence (P78368 whole entry): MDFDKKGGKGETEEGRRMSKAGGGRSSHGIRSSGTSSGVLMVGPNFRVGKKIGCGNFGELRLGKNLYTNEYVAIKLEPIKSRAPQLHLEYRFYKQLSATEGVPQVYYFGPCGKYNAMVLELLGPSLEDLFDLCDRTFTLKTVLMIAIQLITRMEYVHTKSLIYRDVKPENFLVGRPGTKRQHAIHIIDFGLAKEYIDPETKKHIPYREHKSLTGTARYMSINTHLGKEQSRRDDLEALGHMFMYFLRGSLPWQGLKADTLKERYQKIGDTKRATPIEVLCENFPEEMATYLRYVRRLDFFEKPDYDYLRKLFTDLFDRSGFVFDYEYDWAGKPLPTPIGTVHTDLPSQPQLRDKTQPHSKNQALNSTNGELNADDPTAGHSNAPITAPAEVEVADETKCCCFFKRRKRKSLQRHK
# MPSK1, sequence (O75716 whole entry): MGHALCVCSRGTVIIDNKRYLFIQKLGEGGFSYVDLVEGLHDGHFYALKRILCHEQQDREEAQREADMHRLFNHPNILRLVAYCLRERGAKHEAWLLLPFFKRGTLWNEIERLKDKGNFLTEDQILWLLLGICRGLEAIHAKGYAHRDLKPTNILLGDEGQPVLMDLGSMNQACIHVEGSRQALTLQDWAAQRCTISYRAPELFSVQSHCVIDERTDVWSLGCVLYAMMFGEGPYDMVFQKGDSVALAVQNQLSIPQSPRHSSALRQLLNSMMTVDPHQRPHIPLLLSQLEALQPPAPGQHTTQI
# CDK9-Cyclin T1, sequence (P50750 whole entry): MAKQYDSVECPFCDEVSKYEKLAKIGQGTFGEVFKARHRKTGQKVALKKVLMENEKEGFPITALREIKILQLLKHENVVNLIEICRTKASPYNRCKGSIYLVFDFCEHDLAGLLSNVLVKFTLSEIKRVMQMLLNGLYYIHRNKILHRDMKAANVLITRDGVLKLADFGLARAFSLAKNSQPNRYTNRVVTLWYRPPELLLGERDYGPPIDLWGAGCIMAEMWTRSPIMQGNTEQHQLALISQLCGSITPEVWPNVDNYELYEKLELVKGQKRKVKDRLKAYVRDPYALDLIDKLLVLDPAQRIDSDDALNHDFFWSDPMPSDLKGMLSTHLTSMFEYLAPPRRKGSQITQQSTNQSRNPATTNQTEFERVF
# CDK9-Cyclin T1, sequence (O60563 whole entry partner): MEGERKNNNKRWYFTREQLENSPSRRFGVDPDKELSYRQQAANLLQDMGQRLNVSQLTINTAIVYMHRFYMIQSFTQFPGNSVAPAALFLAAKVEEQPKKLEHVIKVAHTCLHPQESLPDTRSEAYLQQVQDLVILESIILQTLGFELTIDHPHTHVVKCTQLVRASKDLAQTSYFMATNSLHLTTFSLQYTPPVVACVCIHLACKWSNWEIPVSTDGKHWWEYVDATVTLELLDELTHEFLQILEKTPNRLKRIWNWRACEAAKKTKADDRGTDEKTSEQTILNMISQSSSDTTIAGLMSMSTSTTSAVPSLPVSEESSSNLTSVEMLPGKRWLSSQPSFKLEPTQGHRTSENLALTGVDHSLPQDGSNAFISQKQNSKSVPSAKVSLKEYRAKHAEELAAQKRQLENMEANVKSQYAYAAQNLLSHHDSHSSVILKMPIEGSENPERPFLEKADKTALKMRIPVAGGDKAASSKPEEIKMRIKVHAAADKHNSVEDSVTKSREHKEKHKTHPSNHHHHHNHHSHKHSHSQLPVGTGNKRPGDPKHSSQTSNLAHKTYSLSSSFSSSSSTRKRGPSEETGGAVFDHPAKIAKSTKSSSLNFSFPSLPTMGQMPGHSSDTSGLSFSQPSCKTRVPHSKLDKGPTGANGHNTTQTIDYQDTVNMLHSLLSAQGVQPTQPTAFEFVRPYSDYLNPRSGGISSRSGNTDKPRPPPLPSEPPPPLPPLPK
# ROCK 2, sequence (O75116 whole entry): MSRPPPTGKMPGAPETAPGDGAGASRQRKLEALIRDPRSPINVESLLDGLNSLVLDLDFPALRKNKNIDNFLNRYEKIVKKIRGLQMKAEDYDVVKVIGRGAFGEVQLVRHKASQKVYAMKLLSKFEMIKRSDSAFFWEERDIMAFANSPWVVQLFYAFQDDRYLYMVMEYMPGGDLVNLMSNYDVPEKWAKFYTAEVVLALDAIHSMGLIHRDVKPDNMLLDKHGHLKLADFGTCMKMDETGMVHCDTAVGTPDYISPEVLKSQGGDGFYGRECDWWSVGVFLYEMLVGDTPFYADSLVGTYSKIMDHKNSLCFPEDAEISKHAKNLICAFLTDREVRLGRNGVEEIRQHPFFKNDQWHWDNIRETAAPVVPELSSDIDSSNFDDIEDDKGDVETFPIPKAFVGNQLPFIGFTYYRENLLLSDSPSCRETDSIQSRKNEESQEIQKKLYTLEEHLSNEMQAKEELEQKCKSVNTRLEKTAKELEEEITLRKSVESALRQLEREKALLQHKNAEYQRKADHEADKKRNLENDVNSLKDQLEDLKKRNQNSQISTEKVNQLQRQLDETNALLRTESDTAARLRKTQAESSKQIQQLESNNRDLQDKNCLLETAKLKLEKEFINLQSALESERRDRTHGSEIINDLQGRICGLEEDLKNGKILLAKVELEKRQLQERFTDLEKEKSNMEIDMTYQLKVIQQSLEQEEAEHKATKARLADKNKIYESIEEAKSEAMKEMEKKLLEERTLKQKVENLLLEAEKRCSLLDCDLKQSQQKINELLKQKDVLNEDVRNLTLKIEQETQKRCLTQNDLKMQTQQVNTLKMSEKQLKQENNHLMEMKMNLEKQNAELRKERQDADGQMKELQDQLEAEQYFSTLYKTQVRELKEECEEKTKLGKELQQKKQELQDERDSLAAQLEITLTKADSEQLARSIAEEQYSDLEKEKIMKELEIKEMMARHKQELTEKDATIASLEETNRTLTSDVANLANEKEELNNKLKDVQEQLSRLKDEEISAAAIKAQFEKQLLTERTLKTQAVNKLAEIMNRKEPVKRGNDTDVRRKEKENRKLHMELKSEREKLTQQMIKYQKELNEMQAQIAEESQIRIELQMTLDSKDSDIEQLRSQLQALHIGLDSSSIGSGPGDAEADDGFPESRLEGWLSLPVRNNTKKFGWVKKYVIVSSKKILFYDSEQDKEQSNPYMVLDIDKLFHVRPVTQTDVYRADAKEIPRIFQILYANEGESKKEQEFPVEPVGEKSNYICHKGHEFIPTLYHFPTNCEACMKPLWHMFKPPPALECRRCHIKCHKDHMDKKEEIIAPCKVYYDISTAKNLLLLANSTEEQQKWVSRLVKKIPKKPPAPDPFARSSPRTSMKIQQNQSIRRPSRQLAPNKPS
# TTBK2, sequence (Q6IQ55 whole entry): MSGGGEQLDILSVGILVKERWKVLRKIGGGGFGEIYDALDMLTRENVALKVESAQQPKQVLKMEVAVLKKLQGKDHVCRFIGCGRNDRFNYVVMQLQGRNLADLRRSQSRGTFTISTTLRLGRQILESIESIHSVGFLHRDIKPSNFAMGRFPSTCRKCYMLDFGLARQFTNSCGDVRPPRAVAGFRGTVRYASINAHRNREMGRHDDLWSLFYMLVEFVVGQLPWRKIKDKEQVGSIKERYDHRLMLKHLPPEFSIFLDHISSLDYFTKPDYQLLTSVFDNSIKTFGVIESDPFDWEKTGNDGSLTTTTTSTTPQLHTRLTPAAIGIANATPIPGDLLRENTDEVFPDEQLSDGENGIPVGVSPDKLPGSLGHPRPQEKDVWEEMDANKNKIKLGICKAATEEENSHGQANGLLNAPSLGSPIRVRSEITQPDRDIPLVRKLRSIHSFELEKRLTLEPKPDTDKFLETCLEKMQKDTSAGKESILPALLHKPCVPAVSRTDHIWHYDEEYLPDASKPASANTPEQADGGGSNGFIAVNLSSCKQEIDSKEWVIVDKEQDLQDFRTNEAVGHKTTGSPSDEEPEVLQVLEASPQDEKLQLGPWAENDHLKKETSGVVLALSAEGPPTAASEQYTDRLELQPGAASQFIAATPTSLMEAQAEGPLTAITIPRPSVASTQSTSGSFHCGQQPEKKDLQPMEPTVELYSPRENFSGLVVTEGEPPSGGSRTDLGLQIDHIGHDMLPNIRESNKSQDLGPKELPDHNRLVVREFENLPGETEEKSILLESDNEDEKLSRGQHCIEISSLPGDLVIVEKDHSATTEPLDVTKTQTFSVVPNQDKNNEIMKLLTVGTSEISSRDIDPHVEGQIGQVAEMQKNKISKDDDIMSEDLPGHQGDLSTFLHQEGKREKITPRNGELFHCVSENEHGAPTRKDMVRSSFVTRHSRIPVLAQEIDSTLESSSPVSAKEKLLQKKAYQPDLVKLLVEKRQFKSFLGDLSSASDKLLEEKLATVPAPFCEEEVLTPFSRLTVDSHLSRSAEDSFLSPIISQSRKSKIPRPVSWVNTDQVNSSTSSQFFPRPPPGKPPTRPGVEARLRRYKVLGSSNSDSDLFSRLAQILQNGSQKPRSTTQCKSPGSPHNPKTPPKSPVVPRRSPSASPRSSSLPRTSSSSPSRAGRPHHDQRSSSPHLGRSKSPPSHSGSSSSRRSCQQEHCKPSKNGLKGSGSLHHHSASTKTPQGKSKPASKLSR
# PKBa, sequence (P31749 whole entry): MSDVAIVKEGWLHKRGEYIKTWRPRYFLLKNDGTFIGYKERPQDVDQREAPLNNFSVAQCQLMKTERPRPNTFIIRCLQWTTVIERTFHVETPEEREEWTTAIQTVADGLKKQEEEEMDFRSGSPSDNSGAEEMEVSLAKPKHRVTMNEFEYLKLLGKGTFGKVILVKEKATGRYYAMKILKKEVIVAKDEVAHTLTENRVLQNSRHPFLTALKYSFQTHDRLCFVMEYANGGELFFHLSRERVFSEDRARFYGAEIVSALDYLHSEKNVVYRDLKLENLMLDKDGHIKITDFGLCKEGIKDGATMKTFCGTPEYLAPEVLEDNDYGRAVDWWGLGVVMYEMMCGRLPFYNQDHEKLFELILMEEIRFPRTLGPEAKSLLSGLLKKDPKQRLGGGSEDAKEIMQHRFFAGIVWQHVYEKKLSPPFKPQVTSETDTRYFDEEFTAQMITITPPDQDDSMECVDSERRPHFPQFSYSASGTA
compound,measurement,setting,value
"CCN(CC)Cc1ccc(OC)c(-c2cc3c(-c4ccc(C(=O)O)c(C(C)C)c4)ccnc3[nH]2)c1 [analogue 1, 4-(2-(5-((Diethylamino)methyl)-2-methoxyphenyl)-1H-pyrrolo[2,3-b]pyridin-4-yl)-2-isopropylbenzoic Acid]",solubility,[1],8 µg/mL
same,activity at 1 µM,[2],17%
same,activity at 1 µM,[3],107%
same,activity at 1 µM,[4],106%
same,activity at 1 µM,[5],105%
same,activity at 1 µM,[6],31%
same,activity at 1 µM,[7],16%
same,activity at 1 µM,[8],114%
same,activity at 1 µM,[9],100%
same,activity at 1 µM,[10],115%
same,activity at 1 µM,[11],92%
same,activity at 1 µM,[12],39%
same,activity at 1 µM,[13],105%
same,activity at 1 µM,[14],105%
same,activity at 1 µM,[15],59%
same,activity at 1 µM,[16],120%
same,activity at 1 µM,[17],17%
same,activity at 1 µM,[18],85%
same,activity at 1 µM,[19],12%
same,activity at 1 µM,[20],80%
same,activity at 1 µM,[21],2%
same,activity at 1 µM,[22],102%
same,activity at 1 µM,[23],91%
same,activity at 1 µM,[24],66%
same,activity at 1 µM,[25],6%
same,activity at 1 µM,[26],38%
same,activity at 1 µM,[27],6%
same,activity at 1 µM,[28],104%
same,activity at 1 µM,[29],50%
same,activity at 1 µM,[30],100%
same,activity at 1 µM,[31],55%
same,activity at 1 µM,[32],78%
same,activity at 1 µM,[33],100%
same,activity at 1 µM,[34],85%
same,activity at 1 µM,[35],104%
same,activity at 1 µM,[36],80%
same,activity at 1 µM,[37],44%
same,activity at 1 µM,[38],25%
same,activity at 1 µM,[39],93%
same,activity at 1 µM,[40],82%
same,activity at 1 µM,[41],90%
same,activity at 1 µM,[42],62%
same,activity at 1 µM,[43],41%
same,activity at 1 µM,[44],68%
same,activity at 1 µM,[45],115%
same,% Activity,[46],106%
